The record followed here is patent US10932465B2, “Antimicrobial mixture containing 4-(3-ethoxy-4-hydroxyphenyl)butan-2-one and a diol, and cosmetic composition containing same” (L'OREAL, priority 2017, dated 2021).

Counter-ions that a name gives are not always drawn.

Assay [1] has as its system Aspergillus niger ATCC 6275. Nature of the assay: MIC / microbial growth test, 96-well microplate, optical density at 620 nm, with FIC index. The format is cell-based. The source says: FIC Index=([…]) with: • MICa with B: minimum concentration of product A in the combination A+B which makes it possible to obtain an inhibitory effect • MICb with A: minimum concentration of product B in the combination A+B which makes it possible to obtain an inhibitory effect. • MICa: minimum inhibitory concentration of product A alone. • MICb: minimum inhibitory concentration of product B alone. […] As regards the combinations tested, MICa with b and MICb with a are the respective concentrations of A and of B in the combinations which make it possible to obtain a microbial growth percentage of less than or equal to 25%. When the FIC index value is less than or equal to 1, it is considered that the combination of test compounds has a synergistic effect. The combinations of compounds A and B were tested on the following strains: Aspergillus niger and Candida albicans. […] A 96-well microplate and an incubation temperature of 32.5° C. are used. The incubation time of the microplate is: • from 24 hours to 48 hours aerobically for Aspergillus niger, • from 18 hours to 24 hours aerobically for Candida albicans. A 10% (weight/volume) stock solution was prepared by mixing 1 g of compound in 9 ml of aqueous 1%o agar solution. […] 50 μL of each of the daughter solutions obtained containing compound A or B1 or B2 are added to the microplate wells. 100 μL of Sabouraud liquid nutrient broth seeded with the strain Aspergillus niger and 50 μL of aqueous 1%o agar solution are also added thereto. 50 μL of each of the daughter solutions obtained containing compound A and 50 μL of each of the daughter solutions obtained containing compound B1 or B2 are added to the microplate wells. 100 μL of Sabouraud liquid nutrient broth seeded at double concentration with the strain Aspergillus niger are also added thereto. A positive microbial growth control was also prepared. […] This control corresponds to 100 μL of double concentration sterile Sabouraud liquid nutrient broth+100 μL of double concentration compound A or B1 or B2. […] In the two cases (test and control), the inoculum represents the concentration of the strain Aspergillus niger present in the final volume of the wells (200 μL) and is between 2 and 6×10^5 cfu/ml of Aspergillus niger.

For assay [2], the system named is Candida albicans ATCC 10231. The description is as above. It counts as cell-based. The source says:
FIC Index=([…]) with: • MICa with B: minimum concentration of product A in the combination A+B which makes it possible to obtain an inhibitory effect • MICb with A: minimum concentration of product B in the combination A+B which makes it possible to obtain an inhibitory effect. • MICa: minimum inhibitory concentration of product A alone. • MICb: minimum inhibitory concentration of product B alone. […] As regards the combinations tested, MICa with b and MICb with a are the respective concentrations of A and of B in the combinations which make it possible to obtain a microbial growth percentage of less than or equal to 25%. When the FIC index value is less than or equal to 1, it is considered that the combination of test compounds has a synergistic effect. The combinations of compounds A and B were tested on the following strains: Aspergillus niger and Candida albicans. […] A 96-well microplate and an incubation temperature of 32.5° C. are used. The incubation time of the microplate is: • from 24 hours to 48 hours aerobically for Aspergillus niger, • from 18 hours to 24 hours aerobically for Candida albicans. A 10% (weight/volume) stock solution was prepared by mixing 1 g of compound in 9 ml of aqueous 1%o agar solution. […] 50 μL of each of the daughter solutions obtained containing compound A or B1 or B2 are added to the microplate wells. 100 μL of Sabouraud liquid nutrient broth seeded with the strain Aspergillus niger and 50 μL of aqueous 1%o agar solution are also added thereto. 50 μL of each of the daughter solutions obtained containing compound A and 50 μL of each of the daughter solutions obtained containing compound B1 or B2 are added to the microplate wells. 100 μL of Sabouraud liquid nutrient broth seeded at double concentration with the strain Aspergillus niger are also added thereto. A positive microbial growth control was also prepared. […] This control corresponds to 100 μL of double concentration sterile Sabouraud liquid nutrient broth+100 μL of double concentration compound A or B1 or B2.

The mark [3] stands for this setting: Aspergillus niger, growth <= 25%.
The mark [4] stands for this setting: Candida albicans, growth <= 25%.

As to `CCOc1cc(CCC(C)=O)ccc1O` [A, 4-(3-ethoxy-4-hydroxyphenyl)butan-2-one], the microbial growth percentage in assay [1] (0.025 A + 0 B2 (weight %)) was 228%; in assay [1] (0.05 A + 0 B2 (weight %)), 109%; in assay [1] (0.0625 A + 0 B1 (weight %)) it was 83%; in assay [1] (0.0625 A + 0 B3 (weight %)) it was 85%; in assay [1] (0.1 A + 0 B2 (weight %)), 73%; in assay [1] (0.125 A + 0 B1 (weight %)), 49%. In addition, the microbial growth percentage in assay [1] (0.125 A + 0 B3 (weight %)) is listed as 48%; in assay [1] (0.2 A + 0 B2 (weight %)), 72%; in assay [1] (0.25 A + 0 B1 (weight %)), 5%; in assay [1] (0.25 A + 0 B3 (weight %)), 7%; in assay [1] (0.4 A + 0 B2 (weight %)), 6%; in assay [2] (0.025 A + 0 B1 (weight %)) it was 63%. The microbial growth percentage came to 83% in assay [2] (0.025 A + 0 B2 (weight %)); 47% in assay [2] (0.05 A + 0 B1 (weight %)); 70% in assay [2] (0.05 A + 0 B2 (weight %)); 22% in assay [2] (0.1 A + 0 B1 (weight %)); 50% in assay [2] (0.1 A + 0 B2 (weight %)); 10% in assay [2] (0.2 A + 0 B2 (weight %)). Also, the “% MIC of A alone” value was 0.25% in assay [1] (Aspergillus niger, series with B1, growth <= 25%); 0.4% in assay [1] (Aspergillus niger, series with B2, growth <= 25%); 0.25% in assay [1] (Aspergillus niger, series with B3, growth <= 25%); 0.1% in assay [2] (Candida albicans, series with B1, growth <= 25%).
For `N=C(NCCCCCCNC(=N)NC(=N)Nc1ccc(Cl)cc1)NC(=N)Nc1ccc(Cl)cc1.O=C(O)[C@H](O)[C@@H](O)[C@H](O)[C@H](O)CO.O=C(O)[C@H](O)[C@@H](O)[C@H](O)[C@H](O)CO` [B1, chlorhexidine digluconate, reference compound], the microbial growth percentage in assay [1] (0 A + 0.0025 B1 (weight %)) is on record as 98%; in assay [1] (0 A + 0.005 B1 (weight %)) it was 98%; in assay [1] (0 A + 0.01 B1 (weight %)), 7%; in assay [2] (0 A + 0.00025 B1 (weight %)) it was 59%; in assay [2] (0 A + 0.0005 B1 (weight %)), 32%; in assay [2] (0 A + 0.001 B1 (weight %)) it was 3%. Also, the “% MIC of B1 alone” value in assay [1] (setting [3]) was determined as 0.01%; in assay [2] (setting [4]) it was 0.001%.
Turning to `[H]/N=C(\N/C(=N/[H])NCCCCCCNC(=N)NC(=N)Nc1ccc(Cl)cc1)Nc1ccc(Cl)cc1` [B2, chlorhexidine hydrochloride, reference compound], the microbial growth percentage in assay [1] (0 A + 0.025 B2 (weight %)) was determined as 194%; in assay [1] (0 A + 0.05 B2 (weight %)) it was 121%; in assay [1] (0 A + 0.1 B2 (weight %)), 137%; in assay [1] (0 A + 0.2 B2 (weight %)), 2%; in assay [2] (0 A + 0.00025 B2 (weight %)) it was 82%; in assay [2] (0 A + 0.0005 B2 (weight %)), 64%. The microbial growth percentage in assay [2] (0 A + 0.001 B2 (weight %)) was 14%. Moreover, the entries for the “% MIC of B2 alone” value in assay [1] (setting [3]) and in assay [2] (setting [4]) were 0.02% and 0.001%, respectively.
